Earlier results, collected in patent EP3738589B1, “A COMPOSITION FOR THE PREVENTION AND/OR TREATMENT OF OROPHARYNGEAL MUCOSA DISEASES” (Neilos S.r.l., priority 2019, dated 2020).

Assays:
[1] = tested on: oral mucositis caused by chemotherapy; conditions: hematopoietic SCT
[2] = tested on: patients suffering from BPCO; conditions: patients suffering from BPCO treated with NAC; from 1.71 times a year
oral mucositis = conditions: patients with cancer

Structure (SMILES)	incidence and grade of oral mucositis [1]	reduction in exacerbations [2]	days of discomfort are reduced by (BPCO; BPCO)	exacerbations of the disease are reduced by (BPCO; BPCO)	reduce hospitalizations due to BPCO by (BPCO; BPCO)	increase in FEV1 (BPCO; from 25%, after a short 4-week-therapy)	severity of oral mucositis (oral mucositis)
CC(=O)N[C@@H](CS)C(=O)O [NAC, N-acetyl-L-cysteine]	reduces the incidence and grade of oral mucositis	0.96 times a year	0.56 days/month	0.07 exacerbation/month	30%	30%	–
O=C1O[C@H]([C@@H](O)CO)C(O)=C1O [vitamin C, ascorbic acid]	–	–	–	–	–	–	alleviates the severity of oral mucositis
